Where two headings read alike, the source gives them in different places. Blank lines part the entries; values can stand above or below the molecule they belong to. *1 amine or outer side, *2 acyl side, *3 side chain or, on linkers, in order; H or OH if unused. Where a SMILES comes first, the peptide text is derived from it. [ ]: non-standard residue; d: D form. The star is where a group is joined. ξ: configuration not given here. MeBmt = C/C=C/C[C@@H](C)[C@@H](O)[C@H](NC)C(=O)O; X15 = CSCOC(C)(C)C[C@@H](C(=O)[*:2])N(C)[*:1]; X1 = CN([C@H](SCCCN1CCOCC1)C(=O)[*:2])[*:1]; X2 = CCN(CC)CCCS[C@H](C(=O)[*:2])N(C)[*:1]; X3 = CC=CCC(C)C(O)C(C(=O)[*:2])N(C)[*:1]; X5 = CSCOC(C)(C)CC(C(=O)[*:2])N(C)[*:1]; X7 = CN(C(SCCCN1CCOCC1)C(=O)[*:2])[*:1]; NMeIle(3ξ) = CCC(C)[C@H](NC)C(=O)O; NMeL = CN[CH](CC(C)C)C(=O)O; NMeV = CN[CH](C(=O)O)C(C)C; dNMeC = CN[C@H](CS)C(=O)O; Et2NCH2CH2 = CCN(CC)CC*; Abu = CC[CH](N)C(=O)O
How the values were obtained:
[1] = Stability testing: epimerization of cyclosporin derivatives in methanol, monitored by HPLC; type: physicochemical; details: for Epimerization % after 168 hours: Table 11, MeOH at 50° C.-58° C.
[2] = tested on: HCV replicon in cell line ET (luc-ubi-neo/ET), Huh7 human hepatoma; assay: HCV subgenomic replicon assay, luciferase end point; type: cell-based; details: read-out: Antiviral activity EC50
[3] = Table 10, MeOH at 50° C., 29 hours
[4] = Table 10, MeOH at 50° C., 77 hours
[5] = Table 10, MeOH at 50° C., 125 hours
[6] = Hepatitis C virus, Huh-7, Table 14, HCV replicon luciferase
[7] = Table 13, HCV replicon luciferase

Compound: C/C=C/C[C@@H](C)[C@@H](O)[C@H]1C(=O)N[C@@H](CC)C(=O)N(C)[C@H](SCCCN(CC)CC)C(=O)N(C)[C@@H](CC(C)(C)OC)C(=O)N[C@@H](C(C)C)C(=O)N(C)[C@@H](CC(C)C)C(=O)N[C@@H](C)C(=O)N[C@H](C)C(=O)N(C)[C@@H](CC(C)C)C(=O)N(C)[C@@H](CC(C)C)C(=O)N(C)[C@@H](C(C)C)C(=O)N1C
- Epimerization % [1, 3]: 0%
- Epimerization % [1, 4]: 0%
- Epimerization % [1, 5]: 0%

Compound: C/C=C/C[C@@H](C)[C@@H](O)[C@H]1C(=O)N[C@@H](CC)C(=O)N(C)[C@H](SCCCN(CC)CC)C(=O)N(C)[C@@H](CC(C)(C)O)C(=O)N[C@@H](C(C)C)C(=O)N(C)[C@@H](CC(C)C)C(=O)N[C@@H](C)C(=O)N[C@H](C)C(=O)N(C)[C@@H](CC(C)C)C(=O)N(C)[C@@H](CC(C)C)C(=O)N(C)[C@@H](C(C)C)C(=O)N1C
- Epimerization % [1, 3]: 0%
- Epimerization % [1, 4]: Less than 1%
- Epimerization % [1, 5]: ~12%

Compound: C/C=C/C[C@@H](C)[C@@H](O)[C@H]1C(=O)N[C@@H](CC)C(=O)N(C)[C@H](CSCCCN(CC)CC)C(=O)N(C)[C@@H](CC(C)(C)O)C(=O)N[C@@H](C(C)C)C(=O)N(C)[C@@H](CC(C)C)C(=O)N[C@@H](C)C(=O)N[C@H](C)C(=O)N(C)[C@@H](CC(C)C)C(=O)N(C)[C@@H](CC(C)C)C(=O)N(C)[C@@H](C(C)C)C(=O)N1C
- Epimerization % after 168 hours [1]: 0%

Compound: C/C=C/C[C@@H](C)[C@@H](O)[C@H]1C(=O)N[C@@H](CC)C(=O)N(C)[C@H](CSCCN(C)C(C)C)C(=O)N(C)[C@@H](CC(C)(C)O)C(=O)N[C@@H](C(C)C)C(=O)N(C)[C@@H](CC(C)C)C(=O)N[C@@H](C)C(=O)N[C@H](C)C(=O)N(C)[C@@H](CC(C)C)C(=O)N(C)[C@@H](CC(C)C)C(=O)N(C)[C@@H](C(C)C)C(=O)N1C
- EC50 [2, 6]: 40 nM

Compound: CC=CCC(C)C(O)C1C(=O)NC(CC)C(=O)N(C)C(SCCCN2CCOCC2)C(=O)N(C)C(CC(C)(C)OCSC)C(=O)NC(C(C)C)C(=O)N(C)C(CC(C)C)C(=O)NC(C)C(=O)NC(C)C(=O)N(C)C(CC(C)C)C(=O)N(C)C(CC(C)C)C(=O)N(C)C(C(C)C)C(=O)N1C (stereo not drawn) (cyclo([X3][Abu][X7][X5]V[NMeL]AA[NMeL][NMeL][NMeV]); configuration not given here)
- EC50 [2, 7]: 160 nM

Compound: C/C=C/C[C@@H](C)[C@@H](O)[C@H]1C(=O)N[C@@H](CC)C(=O)N(C)[C@H](CSCCN(CC)CC)C(=O)N(C)[C@@H](CC(C)(C)OCSC)C(=O)N[C@@H](C(C)C)C(=O)N(C)[C@@H](CC(C)C)C(=O)N[C@@H](C)C(=O)N[C@H](C)C(=O)N(C)[C@@H](CC(C)C)C(=O)N(C)[C@@H](CC(C)C)C(=O)N(C)[C@@H](C(C)C)C(=O)N1C (cyclo(A[dA][NMeL][NMeL][NMeV][MeBmt][Abu][dNMeC](Et2NCH2CH2)[X15]V[NMeL]))
- EC50 [2, 6]: 20 nM

Compound: C/C=C/C[C@@H](C)[C@@H](O)[C@H]1C(=O)N[C@@H](CC)C(=O)N(C)[C@H](CSCCN(CC)CC)C(=O)N(C)[C@@H](CC(C)(C)O)C(=O)N[C@@H](C(C)C)C(=O)N(C)[C@@H](CC(C)C)C(=O)N[C@@H](C)C(=O)N[C@H](C)C(=O)N(C)[C@@H](CC(C)C)C(=O)N(C)[C@@H](CC(C)C)C(=O)N(C)[C@@H](C(C)C)C(=O)N1C (single isomer, unassigned; isomer b)
- EC50 ([2]; HCV subgenomic replicon, cell line ET (luc-ubi-neo/ET) Huh7, luciferase end point): 90 nM
- EC50 [2, 7]: 30 nM

Compound: C/C=C/C[C@@H](C)[C@@H](O)[C@H]1C(=O)N[C@@H](CC)C(=O)N(C)[C@H](CSCCN(CC)CC)C(=O)N(C)[C@@H](CC(C)(C)O)C(=O)N[C@@H](C(C)C)C(=O)N(C)[C@@H](CC(C)C)C(=O)N[C@@H](C)C(=O)N[C@H](C)C(=O)N(C)[C@@H](CC(C)C)C(=O)N(C)[C@@H](CC(C)C)C(=O)N(C)[C@@H](C(C)C)C(=O)N1C (single isomer, unassigned)
- EC50 [2, 6]: 30 nM

Next, values leading:

- Epimerization % after 168 hours [1]: 0%
Compound: C/C=C/C[C@@H](C)[C@@H](O)[C@H]1C(=O)N[C@@H](CC)C(=O)N(C)[C@H](COCCN(CC)CC)C(=O)N(C)[C@@H](CC(C)C)C(=O)N[C@@H](C(C)C)C(=O)N(C)[C@@H](CC(C)C)C(=O)N[C@@H](C)C(=O)N[C@H](C)C(=O)N(C)[C@@H](CC(C)C)C(=O)N(C)[C@@H](CC(C)C)C(=O)N(C)[C@@H](C(C)C)C(=O)N1C

- Epimerization % in MeOH at 65° C. ([1]; Table 8, 2 hours): 0%
- Epimerization % in MeOH at 65° C. ([1]; Table 8, 4 hours): 0%
- Epimerization % in MeOH at 65° C. ([1]; Table 8, 6 hours): 0%
- Epimerization % in MeOH at 65° C. ([1]; Table 8, 8 hours): Less than 1%
- Epimerization % in MeOH at 65° C. ([1]; Table 8, 10 hours): ~10%
Compound: C/C=C/C[C@@H](C)[C@@H](O)[C@H]1C(=O)N[C@@H](CC)C(=O)N(C)[C@H](SCCCN2CCOCC2)C(=O)N(C)[C@@H](CC(C)(C)O)C(=O)N[C@@H](C(C)C)C(=O)N(C)[C@@H](CC(C)C)C(=O)N[C@@H](C)C(=O)N[C@H](C)C(=O)N(C)[C@@H](CC(C)C)C(=O)N(C)[C@@H](CC(C)C)C(=O)N(C)[C@@H](C(C)C)C(=O)N1C [drawing 1931]

- Epimerization % after 168 hours [1]: 0%
Compound: C/C=C/C[C@@H](C)[C@@H](O)[C@H]1C(=O)N[C@@H](CC)C(=O)N(C)[C@H](CSCCCN2CCCCC2)C(=O)N(C)[C@@H](CC(C)(C)O)C(=O)N[C@@H](C(C)C)C(=O)N(C)[C@@H](CC(C)C)C(=O)N[C@@H](C)C(=O)N[C@H](C)C(=O)N(C)[C@@H](CC(C)C)C(=O)N(C)[C@@H](CC(C)C)C(=O)N(C)[C@@H](C(C)C)C(=O)N1C

- Epimerization % after 168 hours [1]: 0%
Compound: C/C=C/C[C@@H](C)[C@@H](O)[C@H]1C(=O)N[C@@H](CC)C(=O)N(C)[C@H](CSCCCN2CCOCC2)C(=O)N(C)[C@@H](CC(C)(C)O)C(=O)N[C@@H](C(C)C)C(=O)N(C)[C@@H](CC(C)C)C(=O)N[C@@H](C)C(=O)N[C@H](C)C(=O)N(C)[C@@H](CC(C)C)C(=O)N(C)[C@@H](CC(C)C)C(=O)N(C)[C@@H](C(C)C)C(=O)N1C

- Epimerization % [1, 3]: 0%
- Epimerization % [1, 4]: 0%
- Epimerization % [1, 5]: 0%
Compound: C/C=C/C[C@@H](C)[C@@H](O)[C@H]1C(=O)N[C@@H](CC)C(=O)N(C)[C@H](SCCCN(CC)CC)C(=O)N(C)[C@@H](C(C)C)C(=O)N[C@@H](C(C)C)C(=O)N(C)[C@@H](CC(C)C)C(=O)N[C@@H](C)C(=O)N[C@H](C)C(=O)N(C)[C@@H](CC(C)C)C(=O)N(C)[C@@H](CC(C)C)C(=O)N(C)[C@@H](C(C)C)C(=O)N1C (cyclo(A[dA][NMeL][NMeL][NMeV][MeBmt][Abu][X2][NMeV]V[NMeL]))

- Epimerization % after 168 hours [1]: 0%
Compound: C/C=C/C[C@@H](C)[C@@H](O)[C@H]1C(=O)N[C@@H](CC)C(=O)N(C)[C@H](CSCCN(C)C)C(=O)N(C)[C@@H](CC(C)(C)O)C(=O)N[C@@H](C(C)C)C(=O)N(C)[C@@H](CC(C)C)C(=O)N[C@@H](C)C(=O)N[C@H](C)C(=O)N(C)[C@@H](CC(C)C)C(=O)N(C)[C@@H](CC(C)C)C(=O)N(C)[C@@H](C(C)C)C(=O)N1C

- Epimerization % ([1]; Table 7, MeOH at 65° C., 2 hours): ~12%
- Epimerization % ([1]; Table 7, MeOH at 65° C., 4 hours): ~19%
- Epimerization % ([1]; Table 7, MeOH at 65° C., 6 hours): ~23%
Compound: C/C=C/C[C@@H](C)[C@@H](O)[C@H]1C(=O)N[C@@H](CC)C(=O)N(C)[C@H](SCCN(C)C)C(=O)N(C)[C@@H](CC(C)C)C(=O)N[C@@H](C(C)C)C(=O)N(C)[C@@H](CC(C)C)C(=O)N[C@@H](C)C(=O)N[C@H](C)C(=O)N(C)[C@@H](CC(C)C)C(=O)N(C)[C@@H](CC(C)C)C(=O)N(C)[C@@H](C(C)C)C(=O)N1C [drawing 1930]

- Epimerization % [1, 3]: ~26%
- Epimerization % [1, 4]: ~32%
- Epimerization % [1, 5]: ~35%
Compound: C/C=C/C[C@@H](C)[C@@H](O)[C@H]1C(=O)N[C@@H](CC)C(=O)N(C)[C@H](SCCN(C)C)C(=O)N(C)[C@@H](CC(C)C)C(=O)N[C@@H](C(C)C)C(=O)N(C)[C@@H](CC(C)C)C(=O)N[C@@H](C)C(=O)N[C@H](C)C(=O)N(C)[C@@H](CC(C)C)C(=O)N(C)[C@@H](CC(C)C)C(=O)N(C)[C@@H](C(C)C)C(=O)N1C [drawing 1933]

- Epimerization % after 168 hours [1]: 0%
Compound: C/C=C/C[C@@H](C)[C@@H](O)[C@H]1C(=O)N[C@@H](CC)C(=O)N(C)[C@H](CSCCCN(C)C)C(=O)N(C)[C@@H](CC(C)(C)O)C(=O)N[C@@H](C(C)C)C(=O)N(C)[C@@H](CC(C)C)C(=O)N[C@@H](C)C(=O)N[C@H](C)C(=O)N(C)[C@@H](CC(C)C)C(=O)N(C)[C@@H](CC(C)C)C(=O)N(C)[C@@H](C(C)C)C(=O)N1C

- Epimerization % [1, 3]: 0%
- Epimerization % [1, 4]: 0%
- Epimerization % [1, 5]: 0%
Compound: C/C=C/C[C@@H](C)[C@@H](O)[C@H]1C(=O)N[C@@H](CC)C(=O)N(C)[C@H](SCCCN2CCOCC2)C(=O)N(C)[C@@H](C(C)CC)C(=O)N[C@@H](C(C)C)C(=O)N(C)[C@@H](CC(C)C)C(=O)N[C@@H](C)C(=O)N[C@H](C)C(=O)N(C)[C@@H](CC(C)C)C(=O)N(C)[C@@H](CC(C)C)C(=O)N(C)[C@@H](C(C)C)C(=O)N1C (stereo partly drawn) (cyclo(A[dA][NMeL][NMeL][NMeV][MeBmt][Abu][X1][NMeIle(3ξ)]V[NMeL]))

- Epimerization % after 168 hours [1]: 0%
Compound: C/C=C/C[C@@H](C)[C@@H](O)[C@H]1C(=O)N[C@@H](CC)C(=O)N(C)[C@H](CSCCN(CC)CC)C(=O)N(C)[C@@H](CC(C)C)C(=O)N[C@@H](C(C)C)C(=O)N(C)[C@@H](CC(C)C)C(=O)N[C@@H](C)C(=O)N[C@H](C)C(=O)N(C)[C@@H](CC(C)C)C(=O)N(C)[C@@H](CC(C)C)C(=O)N(C)[C@@H](C(C)C)C(=O)N1C (single isomer, unassigned)

From patent US10647747B2, “Cyclosporin derivatives and uses thereof” (S&T Global Inc., priority 2010, dated 2020)
